Article PMC10178932, “The Antiangiogenic Effect and Ocular Pharmacology of Novel Modified Nonsteroidal Anti-Inflammatory Drugs in the Treatment of Oxygen-Induced Retinopathy” (Journal of Ocular Pharmacology and Therapeutics, 2023)
“Also recorded” adds a separate entry of the source.

What was measured:
[1] = Ocular pharmacokinetics and biodistribution in adult mice (HPLC tissue levels); conditions: for concentration at 1 h: cornea, topical
Experimental: (§3) In these studies, we used adult mice, giving us more ocular tissue to work with, even though differences may exist between adult and neonatal tissues. […] The pupils were dilated with topical 1% tropicamide. At different time points after the last eye drop, the mice were euthanized and their corneas and retinas were collected quickly, immediately frozen in liquid nitrogen, and stored at −80°C until analyzed.
(§4) Briefly, each tissue sample was weighed and 100–300 μL ddH2O was added, depending on tissue weight, and homogenized.

[2] = Safety: side effects during administration in mice; format: in vivo, mouse
Experimental: (§1) We used a 10% solution of the water-soluble CL-717 in ddH2O with its pH adjusted to 5.0 ± 0.2 with NaOH, and its osmolality to 300 ± 20 mOsm/kg H2O with 18% NaCl. To formulate a 7.15% solution of Q-922 for topical delivery, 71.5 mg of Q-922 was dissolved in 800 μL of a 5% Tween 80/95% normal saline solution, pH 7.0. Additions of 150 μL of 15% solution of polyethylene glycol and 50 μL of 5% solution of Kolliphor EL were made to the Q-922 solution.
(§2) The pH was adjusted to 6.8 and the final volume was 1 mL. Q-922 similar to CL-717 was applied to the ocular surface as 5 μL eye drops when P12 mice were returned to room air. To prepare OXT-328 eye drops, vitamin E TPGS (D-α-tocopheryl polyethylene glycol 1000 succinate) and polyquaternium-1 were dissolved in purified water. OXT-328 (3.5%) was added to this solution, and stirred at 70°C for 30 min. This solution was then centrifuged at 13,200 rpm for 10 min and the supernatant was collected. Mannitol and boric acid were added to the harvested supernatant. After pH adjustment to 6.7 ± 0.2 using NaOH, purified water was added to the final volume. The resulting solution was sterilized by filtration through a 0.22 μm filter.

[3] = test system: chicken chorioallantoic membrane (CAM); assay: Ex ovo chicken chorioallantoic membrane (CAM) angiogenesis assay; format: in vivo; conditions: 72 h
Experimental: Fertilized chick eggs were obtained from Charles River Labs (North Franklin, CT) and transferred to a specialized incubator with an automatic rotating device (Grumbach, Lyon Technologies, Inc., Brutgerate GmbH, Germany) for 3 days at 37°C and 70% humidity. After incubation, the eggs were cracked, and the embryo was transferred to a 100 × 25 mm sterilized Petri dish in a laminar flow hood. The eggs were incubated for 7 days and the sterilized filter paper disc containing water, 50 μM of OXT-328, or 50 μM of Q-922, or 100 μM of CL-717 was plated on the yolk sac membrane. The filter papers were treated with each reagent twice per day. Three days later, the angiogenic response was expressed as microvessel density in the CAM area determined under a microscope.[25]

[4] = test system: mice with oxygen-induced retinopathy (OIR); assay: Oxygen-induced retinopathy (OIR) mouse model, AVA and NVA in retinal flat mounts; format: in vivo, mouse (C57BL/6); conditions: for Avascular area (AVA), percent of total retinal area / Neovascular area (NVA), percent of total retinal area: mean ± SEM
Experimental: C57BL/6 mice with or without pregnancy (Subline J, specific pathogen-free class) were purchased from Jackson Laboratory, Bar Harbor, ME, and housed in room air (21% oxygen) at 25°C and a 12-h light/12-h dark cycle, with free access to food and water. Animal experiments were designed to provide intralitter control and equal size groups. We used randomization and blinded analysis. After delivery, pups from 1 litter were randomized into groups, and the number of mice in each group was n ≥ 6.
Pup litters together with their mothers were exposed to 75% oxygen from postnatal day 7 (P7) to P12 and returned to room air from P12 to P17.
For retinal flat mounts,[22] on P17, the eyeballs of the mice were enucleated and fixed in 4% paraformaldehyde for 0.5 h. Once the eyeball was fixed, its posterior segment was excised and fixed further in the same solution for 1 h, after which the retina was dissected and fixed again in 4% paraformaldehyde overnight at 4°C. Following this, the retina was washed sequentially as follows: thrice in phosphate-buffered saline (PBS) with 0.1% Tween-20 for 10 min each; in 50% methanol for 10 min; in 100% methanol for 10 min; and thrice in PBS with 0.1% Tween-20 for 10 min each. The retina was then blocked with 1% bovine serum albumin in 0.5% Triton X-100 in PBS for 30 min; incubated with Alexa Fluor 488 conjugated isolectin-B4 overnight at 4°C; washed 4 times in 0.1% Tween-20 in PBS; mounted on a glass slide; and covered with PermaFluorTM aqueous mounting medium.
Retinal flat mounts were imaged with an optical microscope at 10 × magnification, and the avascular area (AVA) and neovascular area (NVA) were delineated with ImageJ, a public domain Java image processing and analysis program. The software provides the user with the ability to determine total image surface area, AVA and NVA. Noncontinguous regions of interest such as AVA and NVA could be outlined and the areas could be summed. Results are expressed as a percent of the total surface area in dimensionless units. The person measuring the AVA and NVA was blinded as to the treatment received by that animal.
Table 1 summarizes the routes of administration of each study drug (OXT-328, Q-922, CL-717). From previous studies, we knew that our lead compound OXT-328 was subject to rapid hydrolysis by carboxylesterases.
as §1, §2
For intravitreal injections, Q-922 and OXT-328 were formulated as follows: vitamin E TPGS and polyquaternium-1 were dissolved in ddH2O and the respective drug was added, and the solution was stirred at 70°C for 30 min. This solution was then centrifuged at 13,200 rpm for 10 min and the supernatant was collected. Mannitol and boric acid were added to the supernatant to final concentrations of 3.18% (w/v) and 1.2% (w/v), respectively. […]

[5] = set-up: method as in PMID 21955327; conditions: systemically administered, rapidly hydrolyzed; cited from earlier work
in vivo = conditions: mouse; for concentration at 1 h / Cmax: adult mice; for concentration at 1 h: 1 h after OXT-328 3.5% eye drops (3 drops per eye); for Cmax: Retinal Cmax
Experimental: as §3, §4

[6] = Uptake and biodistribution of CL-717 in explanted human eyes; format: in vitro ADME; conditions: explanted human eye, tissues at 1 h, 35.5°C
Experimental: Human eyes were obtained through the Lions Eye Bank for Long Island, Valley Stream, NY. […] The donor's identity was protected by de-identifying each sample. Following harvesting, they were transported on ice and delivered to the laboratory for study within 2 h after enucleation.
The anterior surface of explanted human eyes was immersed in CL-717 10% solution for 1 or 10 min, followed by washing with ddH2O. The eyes were placed in a Petri dish with their anterior part facing up, and the dish was covered and incubated for 1 h at 35.5°C, the normal in vivo eye temperature.

[7] = adult mice, single 1 μL intravitreal injection of OXT-328 1%
[8] = read-out: Retinal Cmax, adult mice, single 1 μL intravitreal injection of OXT-328 1%, mean ± SEM
[9] = 50 μM on filter disc twice per day
[10] = intraperitoneal 100 mg/kg once daily P7-P17
[11] = intraperitoneal 150 mg/kg once daily P7-P17
[12] = intraperitoneal 150 mg/kg once daily P7-P17, P17
[13] = single 1 μL intravitreal injection of 1% on P12, P17
[14] = single 1 μL intravitreal injection of 1% on P12, retinas on P17
[15] = 10% eye drops, 5 μL 5x/day, P12-P17
[16] = 10% eye drops, 5 μL 5x/day, P12-P17, P17

## CC1=C(CC(=O)O)c2cc(F)ccc2/C1=C\c1ccc([S+](C)[O-])cc1 (stereo not drawn) [sulindac, reference compound]
[1]; [7]
  Retinal Cmax, fold lower than OXT-328: > 30 fold
[1]; mouse
  concentration at 1 h: 48.3 ± 7.9 µM
[1]; mouse, retina, other: intravitreal injection
  Cmax: 7.1 ± 2.4 µM

## CC1=C(CC(=O)O)c2cc(F)ccc2/C1=C\c1ccc(S(C)(=O)=O)cc1 [sulindac sulfone]
[1]; adult mice, 1 h after OXT-328 3.5% eye drops (3 drops per eye), mean ± SEM
  Level in the cornea: 3.8 ± 0.7 µM
[1]; [7]
  Retinal Cmax, fold lower than OXT-328: > 30 fold
[1]; [8]
  Cmax: 14.5 ± 2.4 µM

## CCOP(=O)(NCCCCNC(=O)c1ccccc1SC/C=C(\C)CC/C=C(\C)CCC=C(C)C)OCC [Q-922, diethyl 4-(2-((2E,6E)-3,7,11-trimethyldodeca-2,6,10-trienylthio)benzamido)butylphosphoramidate]
[2]; Q-922 eye drops (7.15% formulation) applied to the ocular surface of mice
  Side effects on the ocular surface: erythema and mild edema on the ocular surface; also recorded: erythema and edema restricted to the cornea and conjunctiva
[2]; Q-922 eye drops applied to the ocular surface of mice
  Time for side effects to subside after treatment was discontinued: ≤ 48 h
[3]; [9]
  Reduction of average new vessel formation versus control: 41.4%
[4]; [10]
  Effect on AVA: no significant effect
  Effect on NVA: no significant effect
[4]; [11]
  AVA reduction versus vehicle: 28%
  NVA reduction versus vehicle: 61%
[4]; [12]
  Avascular area (AVA), percent of total retinal area: 8.4% ± 0.5%
  Neovascular area (NVA), percent of total retinal area: 9.5% ± 2.6%
[4]; [13]
  AVA reduction versus vehicle: 75%
  NVA reduction versus vehicle: 52%
[4]; [14]
  Avascular area (AVA), percent of total retinal area: 3.5% ± 0.5%
  Neovascular area (NVA), percent of total retinal area: 5.2% ± 1.7%

## CCOP(=O)(OCC)OCCCCOC(=O)CC1=C(C)/C(=C/c2ccc([S+](C)[O-])cc2)c2ccc(F)cc21 (stereo not drawn) [OXT-328, phospho-sulindac]
[1]; [7]
  Retinal Tmax: 2 h
[1]; [8]
  Cmax: 516 ± 64.4 µM
[5]
  Level in plasma and many tissues like the eye after systemic administration: essentially undetectable
In vivo
  half-life: 4.8 h
In vivo; Level in the cornea, mean ± SEM
  concentration at 1 h: 0 µM
In vivo; Level in the retina, mean ± SEM
  concentration at 1 h: 0.4 ± 0.2 µM
In vivo; single 1 μL intravitreal injection of OXT-328 1%, mean ± SEM
  Cmax: 516 ± 64 µM
[3]; [9]
  Reduction of average new vessel formation versus control: 29.3%
[4]; eye drops, data not shown
  Effect on OIR: no effect
[4]; [14]
  Avascular area (AVA), percent of total retinal area: 6.9% ± 2.4%
  Neovascular area (NVA), percent of total retinal area: 5.6% ± 1.9%

## CCOP(=O)(NCCN1CCN(C(=O)CC2=C(C)/C(=C/c3ccc([S+](C)[O-])cc3)c3ccc(F)cc32)CC1)OCC (stereo not drawn) [CL-717, (Z)-diethyl 2-(4-(2-(5-fluoro-2-methyl-1-(4-(methylsulfinyl)benzylidene)-1H-inden-3-yl)acetyl)piperazin-1-yl)ethylphosphoramidate]
[6]; ocular surface in 10% solution for 1 min
  CL-717 level in retina: 12.6 µM
[6]; ocular surface in 10% solution for 10 min
  CL-717 level in retina: 46.6 µM
In vivo; topical or ocular
  Tmax: 0.5 h
  half-life: 4.7 h
In vivo; topical or ocular, 3 eye drops of CL-717 10% on the ocular surface
  Cmax: 2.5 µM
[3]; 100 μM on filter disc twice per day
  Reduction of average new vessel formation versus control: 34.2%
[4]; [15]
  AVA reduction versus vehicle: 65%
  NVA reduction versus vehicle: 63%
[4]; [16]
  Avascular area (AVA), percent of total retinal area: 5.8% ± 0.8%
  Neovascular area (NVA), percent of total retinal area: 8.3% ± 1.6%

## CSc1ccc(/C=C2/C(C)=C(CC(=O)O)c3cc(F)ccc32)cc1 [sulindac sulfide]
[1]; adult mice, single 1 μL intravitreal injection of OXT-328 1%, mean ± SEM
  Retinal Cmax: undetectable
[1]; mouse
  concentration at 1 h: 3.1 ± 0.6 µM
